# In patent publication US20240408093A1, “HETEROBIFUNCTIONAL COMPOUNDS AND THEIR USE IN TREATING DISEASE” (HALDA THERAPEUTICS OPCO, INC., priority 2022, published 2024):
# Where two headings read alike, the source gives them in different places.
# Experiments:
# Assay type in all cases: cell-based
# GSPT1 = assay: Payload release assay (DC50 readout), GSPT1 degradation in the presence of recombinant target protein; details: I-series compounds (GSPT1 readout inferred)
# KRAS G12C = KRAS G12C (Homo sapiens, UniProt P01116, G12C); assay: KRAS G12C cellular target engagement assay (SW1573 cells); set-up: host or cells: SW1573; details: 17 hours, read-out: TE50 (the source's name)
# Protocol: SW1573 cells (ATCC CRL-2170) were cultured in RPMI 1640 (Gibco A1049101), supplemented with 10% Heat-inactivated FBS (Gibco Cat. #A38400-01) and 1% Penicillin/Streptomycin (Gibco Cat. #15140-122) in an incubator set at 37° C. and 5% CO2. Cells were seeded at 100,000 cells/ml in 1 ml of complete media in a 24-well, tissue culture-treated plate (Falcon 353226) and incubated overnight. Cells were treated with increasing concentrations of compound and let incubate at 37C and 5% CO2 for 17 hours, after which media was aspirated and cells were lysed in 75 uL RIPA Lysis and Extraction Buffer (Thermo 89901) supplemented with 5 mM MgCl2, Protease and Phosphatase inhibitor cocktail (Thermo 1861281), and Universal Nuclease (Thermo 88700). Plates with RIPA were shaken at 4° C. at 600 rpm for 15 min. After shaking samples, they were collected and spun down at 21,000 g for 15 min at 4° C. Following centrifugation, ˜10 ug of lysate was added to Laemmli Sample Buffer (Bio-Rad 1610747) plus 10% beta-mercaptoethanol, boiled for 15 minutes at 65° C. and loaded onto 12% Mini-PROTEAN TGX™ Precast Protein Gels (Bio-Rad). Protein was transferred to a nitrocellulose membrane (Thermo LC2000) using the iBlot 2 Dry Blotting System (Thermo). After transfer, membranes were washed in 1× TBST (Bioland Scientific LLC TBST0103) 3× for 5 min. Following the wash, blocking buffer (Rockland MB-070) was added for 1 hour at room temperature. Primary antibodies against KRAS (LifeSpan Bio LS-C175665) and actin (Cell Signaling Technology 8457) were added overnight at 4° C. Membranes were then washed again 3× for 5 min in 1× TBST. Secondary antibodies (LI-COR 926-68072 and 926-68073) were added and shaken for 1 hr at room temperature. Membranes were then washed 3× for 5 min in 1×TBST and developed. Membranes were placed on an Odyssey imager (LI-COR).
# [1] = test system: HEK293 cells (ATCC CRL-1573); assay: Cellular growth inhibition assay, HEK293 cells (Example 16); details: Homo sapiens, 72 hours, CellTiter-Glo 2.0
# HeLa cells (ATCC CCL-2) = assay: Cellular growth inhibition assay, HeLa cells (Example 16); details: Homo sapiens, 72 hours, CellTiter-Glo 2.0
# [2] = 0 μM recombinant KRAS G12C, read-out: DC50 at 0 μM KRAS G12C
# [3] = 5 μM recombinant KRAS G12C, read-out: DC50 at 5 μM KRAS G12C
# Sequence of KRAS G12C (P01116 1-188 isoform P01116-2 G12C): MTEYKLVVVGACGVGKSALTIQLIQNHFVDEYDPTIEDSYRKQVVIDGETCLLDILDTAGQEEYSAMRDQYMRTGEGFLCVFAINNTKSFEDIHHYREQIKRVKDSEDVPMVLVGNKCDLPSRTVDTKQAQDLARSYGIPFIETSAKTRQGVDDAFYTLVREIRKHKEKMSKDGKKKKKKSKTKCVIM
SMILES,DC50 (GSPT1; [2]),DC50 (GSPT1; [3]),EC50 (KRAS G12C),GI50 [1],GI50 (HeLa cells (ATCC CCL-2))
C=C(CN(C)c1cccc(NC(=O)NCc2ccc3c(c2)CN(C2CCC(=O)NC2=O)C3=O)c1)C(=O)N1CCN(c2nc(OC[C@@H]3CCCN3C)nc3c2CCN(c2cccc4cccc(Cl)c24)C3)C[C@@H]1CC#N (some centres unmarked) [Compound I-58],> 10000 nM,5000 to 10000 nM,5000 to 10000 nM,1500 to 10000 nM,1500 to 10000 nM
C=C(COC(=O)NCCCc1cc(Cl)cc(NC(=O)NCc2ccc3c(c2)CN(C2CCC(=O)NC2=O)C3=O)c1)C(=O)N1CCN(c2nc(OC[C@@H]3CCCN3C)nc3c2CCN(c2cccc4cccc(Cl)c24)C3)C[C@@H]1CC#N (some centres unmarked) [Compound I-74],250 to 5000 nM,< 250 nM,< 250 nM,500 to 1500 nM,1500 to 10000 nM
C=C(COc1ccc(Cl)cc1NC(=O)NCc1ccc2c(c1)CN(C1CCC(=O)NC1=O)C2=O)C(=O)N1CCN(c2nc(OC[C@@H]3CCCN3C)nc3c2CCN(c2cccc4cccc(Cl)c24)C3)C[C@@H]1CC#N (some centres unmarked) [Compound I-52],250 to 5000 nM,< 250 nM,250 to 5000 nM,500 to 1500 nM,1500 to 10000 nM
C=C(COC(=O)NCc1cc(Cl)cc(NC(=O)NCc2ccc3c(c2)CN(C2CCC(=O)NC2=O)C3=O)c1)C(=O)N1CCN(c2nc(OC[C@@H]3CCCN3C)nc3c2CCN(c2cccc4cccc(Cl)c24)C3)C[C@@H]1CC#N (some centres unmarked) [Compound I-73],< 250 nM,< 250 nM,< 250 nM,< 500 nM,1500 to 10000 nM
